Measurements from patent US7494754B2, “Electrophotographic photoreceptor containing asymmetric naphthalenetetracarboxylic acid diimide derivatives and electrophotographic imaging apparatus employing the same” (Samsung Electronics Co., Ltd., priority 2005, dated 2009).

Test: Solubility test in organic solvents
Assay type: physicochemical
Conditions: for Methylene chloride (g): amount of solvent required to completely dissolve 1 g of the tested compound / Tetrahydrofuran (g): amount of solvent required to completely dissolve 1 g of the tested compound: room temperature, 1 g compound
Description: 1 g of a compound to be tested was poured into a test tube with stirring at room temperature and solvents listed in Table 1 were slowly added drop by drop. The amounts of the solvents required to completely dissolve 1 g of the tested compound were measured.

Compound | solubility in organic solvents (in words) | Methylene chloride (g): amount of solvent required to completely dissolve 1 g of the tested compound | Tetrahydrofuran (g): amount of solvent required to completely dissolve 1 g of the tested compound
CCCCN1C(=O)c2ccc3c4c(ccc(c24)C1=O)C(=O)N(CCCC)C3=O [Compound (40)] | very poor solubility | 17 g | 74 g
CCCCN1C(=O)c2ccc3c4c(ccc(c24)C1=O)C(=O)N(C(CC)c1ccccc1)C3=O (stereo not shown) [Compound (12)] | – | 1.3 g | 7 g
CCCCN1C(=O)c2ccc3c4c(ccc(c24)C1=O)C(=O)N(C(C)c1ccccc1)C3=O (stereo not shown) [Compound (4)] | – | 1.5 g | 12 g
CC(c1ccccc1)N1C(=O)c2ccc3c4c(ccc(c24)C1=O)C(=O)N(C(C)c1ccccc1)C3=O (stereo not shown) [Compound (30)] | poor solubility | 3.5 g | 50 g
